The results in this text go back to PubChem BioAssay AID2789 (Sanford-Burnham Center for Chemical Genomics, 2010).

The source made the active and inactive calls. No rule for the calls is given here.

The test system of this assay is NF-kappaB luciferase reporter cells, doxorubicin-induced, luminescence. Briefly: inhibitors of doxorubicin-induced NF-kB reporter, SAR follow-up, cell-based, doxorubicin inducer, luciferase, set 2 (AID 2789).
By IC50 is commonly meant the point on the concentration scale where inhibition reaches its midpoint. Take `CCCCCn1c(SCCc2ccccc2)nc2c1c(=O)[nH]c(=O)n2C`: the IC50 was > 25 µM (inactive).

In the case of `CC(C)Sc1nc2c(c(=O)[nH]c(=O)n2C)n1Cc1ccccc1`, the IC50 is > 25 µM (inactive). With `C/C=C/Cn1c(SCCCc2ccccc2)nc2c1c(=O)[nH]c(=O)n2C` the figure was > 25 µM (inactive); with `Cn1c(=O)[nH]c(=O)c2c1nc([N+](=O)[O-])n2Cc1ccccc1`, > 25 µM (inactive); with `C/C=C/Cn1c(SCc2ccc(Cl)cc2)nc2c1c(=O)[nH]c(=O)n2C`, > 25 µM (inactive).

In the case of `C=CCn1c(SCCCc2ccccc2)nc2c1c(=O)[nH]c(=O)n2C`, the IC50 was > 25 µM (inactive).

Regarding `CCCn1c(SCCc2ccccc2)nc2c1c(=O)[nH]c(=O)n2C`, the IC50 was > 25 µM (inactive). On to `CCCCn1c(SCC(=O)Nc2nnc(CC)s2)nc2c1c(=O)n(C)c(=O)n2C`, for which the IC50 is > 25 µM (inactive). The figure for `CC(C)n1c(SCCCc2ccccc2)nc2c1c(=O)[nH]c(=O)n2C` is > 25 µM (inactive); for `CCCn1c(SCC(=O)Nc2nc3c(s2)CCCC3)nc2c1c(=O)n(C)c(=O)n2C` it is > 25 µM (inactive). The figure for `Nc1nc2ccccc2n1CCOc1ccc(Cl)cc1` is > 25 µM (inactive).

Regarding `C/C=C/Cn1c(SCc2ccccc2)nc2c1c(=O)[nH]c(=O)n2C`, the IC50 is > 25 µM (inactive). With `COCCn1c(SCCCc2ccccc2)nc2c1c(=O)[nH]c(=O)n2C` the figure was > 25 µM (inactive). Regarding `C/C(Cl)=C\Cn1c(NCCc2ccccc2)nc2c1c(=O)n(C)c(=O)n2C`, the IC50 is > 25 µM (inactive). The figure for `CCCCn1c(SCC(=O)c2ccccc2)nc2c1c(=O)[nH]c(=O)n2C` is > 25 µM (inactive).
